Measured values published in patent publication US11415579B2, “Assay for measuring a rate of reaction between a target and a ligand candidate” (Imperial College Innovations Ltd., priority 2016, dated 2022).

Tests used:
[1] = molecular target: T1, Cdk2(R122C) (C177A) (Homo sapiens, UniProt P24941, C177A/R122C); assay: Kinetic thiol consumption assay with Cdk2 mutant R122C; format: binding; design: key to Rate enhancement, Cdk2 R122C: rate constant with Cdk2 ÷ rate constant with model thiol (fold); details: additional mutation C177A; for Rate constant with Cdk2 R122C: Protein: Cdk2, cysteine position R122C, in h-1
T1 construct: poly-histidine; made in house; host or cells: E. coli
In short: (§1)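 His-tagged single-surface-cysteine Cdk2 mutants (C177A background) from E. coli, 5 μM in degassed phosphate buffer pH 8, pre-treated with immobilized TCEP beads. Fluorescence (ex/em 380/470 nm) read after 1 h at room temperature, normalized to DMSO/thiol-only control; first-order decay fits gave rate constants, divided by model-thiol rate for rate enhancement.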

[2] = molecular target: T2, Cdk2(H71C) (C177A) (Homo sapiens, UniProt P24941, C177A/H71C); assay: Kinetic thiol consumption assay with Cdk2 mutant H71C; format: binding; design: key to Rate enhancement, Cdk2 H71C: rate constant with Cdk2 ÷ rate constant with model thiol (fold); details: additional mutation C177A; for Rate constant with Cdk2 H71C: Protein: Cdk2, cysteine position H71C, in h^-1
T2 construct: poly-histidine; made in house; host or cells: E. coli
In short: as §1

[3] = molecular target: T3, Cdk2(T182C) (C177A) (Homo sapiens, UniProt P24941, C177A/T182C); assay: Kinetic thiol consumption assay with Cdk2 mutant T182C; format: binding; design: key to Rate enhancement, Cdk2 T182C: rate constant with Cdk2 ÷ rate constant with model thiol (fold); details: additional mutation C177A; for Rate constant with Cdk2 T182C: Protein: Cdk2, cysteine position T182C, in h^-1
T3 construct: poly-histidine; made in house; host or cells: E. coli
In short: as §1

[4] = molecular target: T4, Cdk2(N272C) (C177A) (Homo sapiens, UniProt P24941, C177A/N272C); assay: Kinetic thiol consumption assay with Cdk2 mutant N272C; format: binding; design: key to Rate enhancement, Cdk2 N272: rate constant with Cdk2 ÷ rate constant with model thiol (fold); details: for Rate enhancement, Cdk2 N272: Cdk2 N272, additional mutation C177A; for Rate constant with Cdk2 N272C: Protein: Cdk2, cysteine position N272C, additional mutation C177A, in h^-1
T4 construct: poly-histidine; made in house; host or cells: E. coli
In short: as §1

[5] = Kinetic thiol consumption assay with model thiol glutathione; format: physicochemical; design: Rate constant with glutathione (k(GSH)): unit not given here; details: for Rate constant with glutathione (k(GSH)): 500 μM ligand, 5 μM thiol, phosphate buffer pH 8; for Rate constant with Glutathione: Protein: Glutathione, cysteine position NA, in h-1
In short: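 Rate constants for acrylamide reaction with 5 μM glutathione come from first-order exponential fits of normalized fluorescence decay (ex 380, em 470 nm). Reactions run in degassed phosphate buffer at pH 8 containing TCEP beads, room temperature.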

[6] = molecular target: T5, Cdk2[C177A, F80C, K278C] (Homo sapiens, UniProt P24941, C177A/F80C/K278C); assay: Kinetic thiol consumption assay with mutant Cdk2 as model thiol; format: binding; design: unit not given here; details: 500 μM ligand, 5 μM thiol, phosphate buffer pH 8
T5 construct: poly-histidine; made in house; host or cells: E. coli
In short: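 Model thiol: His-tagged human Cdk2 C177A/F80C/K278C (two engineered surface cysteines), E. coli-expressed, 5 μM in degassed phosphate buffer pH 8 with immobilized TCEP beads (2% v/v). Fluorescence (ex/em 380/470 nm) followed over time at room temperature, normalized to DMSO/thiol control. First-order decay fit gives rate constants.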

[7] = molecular target: T6, Cdk2(C177A, F80C) (Homo sapiens, UniProt P24941, C177A/F80C); assay: Kinetic thiol consumption assay with Cdk2 mutant F80C, incl. kobs versus concentration (Kd, k2); format: binding; design: key to Rate enhancement, Cdk2 F80C: Cdk2 rate constant divided by model-thiol rate constant; details: additional mutation C177A; for Rate constant with Cdk2 F80C: Protein: Cdk2, cysteine position F80C, in h^-1
T6 construct: poly-histidine; made in house; host or cells: E. coli
In short: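 His-tagged Cdk2(C177A/F80C) from E. coli or model thiol, 5 μM in degassed phosphate buffer pH 8 with TCEP beads, reacted with acrylamide ligands; fluorescence (ex/em 380/470 nm) normalized to DMSO control and fitted to first-order decay for kobs. Kd and k2 obtained from hyperbolic fit of kobs versus ligand concentration.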

[8] = molecular target: T7, human cyclin-dependent kinase 2 (Cdk2) (Homo sapiens, UniProt P24941); assay: Kinetic thiol consumption assay with wild type Cdk2 (C177); format: binding; design: key to Rate enhancement, Cdk2 WT: k(Cdk2) divided by k(model thiol); Rate constant with Cdk2 (k(Cdk2)): unit not given here; details: for Rate constant with Cdk2 (k(Cdk2)): 500 μM ligand, 5 μM thiol, phosphate buffer pH 8; for Rate enhancement, Cdk2 WT: no additional mutations; for Rate constant with Cdk2 WT: Protein: Cdk2, cysteine position WT, in h^-1; for k(Cdk2)/k(Cdk2_mut) rate enhancement: model thiol Cdk2[C177A, F80C, K278C]; for k(Cdk2)/k(GSH) rate enhancement: model thiol glutathione
T7 construct: poly-histidine; made in house; host or cells: E. coli
In short: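 Rate constants came from first-order exponential decay fits of normalized fluorescence against time, with thiol (5 μM) in degassed pH 8 phosphate buffer containing 2% v/v TCEP beads and reads after 1 h at room temperature.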

[9] = molecular target: T8, Cdk2(S276C) (C177A) (Homo sapiens, UniProt P24941, C177A/S276C); assay: Kinetic thiol consumption assay with Cdk2 mutant S276C; format: binding; design: key to Rate enhancement, Cdk2 S276C: rate constant with Cdk2 ÷ rate constant with model thiol (fold); details: additional mutation C177A; for Rate constant with Cdk2 S276C: Protein: Cdk2, cysteine position S276C, in h^-1
T8 construct: poly-histidine; made in house; host or cells: E. coli
In short: as §1

[10] = molecular target: T9, Cdk2(S181C) (C177A) (Homo sapiens, UniProt P24941, C177A/S181C); assay: Kinetic thiol consumption assay with Cdk2 mutant S181C; format: binding; design: key to Rate enhancement, Cdk2 S181C: rate constant with Cdk2 ÷ rate constant with model thiol (fold); details: additional mutation C177A; for Rate constant with Cdk2 S181C: Protein: Cdk2, cysteine position S181C, in h^-1
T9 construct: poly-histidine; made in house; host or cells: E. coli
In short: as §1

SMILES	Rate enhancement, Cdk2 R122C [1]	Rate constant with Cdk2 R122C [1]	Rate enhancement, Cdk2 H71C [2]	Rate enhancement, Cdk2 T182C [3]	Rate constant with Cdk2 T182C [3]	Rate enhancement, Cdk2 N272 [4]	Rate constant with Cdk2 N272C [4]	Rate constant with glutathione (k(GSH)) [5]	Rate constant with Glutathione [5]	Rate constant with Cdk2[C177A, F80C, K278C] (k(Cdk2_mut)) [6]	Rate enhancement, Cdk2 F80C [7]	Rate constant with Cdk2 F80C [7]	Rate constant with Cdk2 (k(Cdk2)) [8]	Rate enhancement, Cdk2 WT [8]	Rate constant with Cdk2 WT [8]	k(Cdk2)/k(Cdk2_mut) rate enhancement [8]	k(Cdk2)/k(GSH) rate enhancement [8]	Rate enhancement, Cdk2 S276C [9]	Rate constant with Cdk2 S276C [9]	Rate enhancement, Cdk2 S181C [10]	also measured
C=CC(=O)Nc1ccc(C(=O)NC2CCCC2)cc1 [EL-1114]	0.259	0.007805	3.388	16.35	0.4929	0.04599	0.001386	0.02997	0.03014	0.2299	9.237	0.2784	0.07947	2.637	0.07947	0.3457	2.652	0.7973	0.02403	0.3942	Rate constant with Cdk2 H71C [2]: 0.1021; Rate constant with Cdk2 S181C [10]: 0.01188
C=CC(=O)N1CCN(C(=O)OCC)CC1c1cccs1 (stereo not shown) [EL-1121]	0.2677	0.006872	1.52	1.411	0.03623	0.5551	0.01425	0.02567	0.02567	0.01555	0.4897	0.01257	0.01328	0.5173	0.01328	0.854	0.5173	0.7713	0.0198	1.051	Rate constant with Cdk2 H71C [2]: 0.03901; Rate constant with Cdk2 S181C [10]: 0.02699
C=CC(=O)N1CCN(c2ccccc2[N+](=O)[O-])CC1 [EL-1134]	1.145	0.005054	4.627	14.4	0.06354	1.119	0.004938	0.00444	0.004413	0.02097	3.947	0.01742	0.0071	1.609	0.007099	0.3385	1.597	1.414	0.006242	1.601	Rate constant with Cdk2 H71C [2]: 0.02042; Rate constant with Cdk2 S181C [10]: 0.007065
C=CC(=O)N1CCCCCC1c1ccc(N(C)C)cc1 (stereo not shown) [EL-1140]	0.3699	0.003006	0	1.338	0.01087	0.1121	0.0009109	0.00797	0.008126	0.00407	0.7204	0.005854	0.00303	0.6141	0.00499	0.7455	0.3806	0.2024	0.001645	0.6713	Rate constant with Cdk2 S181C [10]: 0.005455
C=CC(=O)NCC1(NC(=O)OC(C)(C)C)CCCCC1 [EL-1143]	0.3144	0.002778	0.2745	17.17	0.1517	1.495	0.01321	0.00493	0.008837	0.00802	1.059	0.009355	0.014	4.291	0.03792	1.746	2.839	3.446	0.03045	2.376	Rate constant with Cdk2 H71C [2]: 0.002426; Rate constant with Cdk2 S181C [10]: 0.021
